Results: patent US20190060428A1, “FORMULATIONS FOR NEOPLASIA VACCINES AND METHODS OF PREPARING THEREOF” (The Broad Institue Inc., priority 2015, published 2019)
Where “and” joins values, the source holds several entries; their conditions need not be identical. Equal entries are not always repeated. Blank lines part the entries; values can stand above or below the substance they belong to.

Tests used:
[1] = Solubility of peptides in DMSO/D5W/5 mM succinate formulation; settings: pH 6
[2] = pH of peptide solutions in DMSO/D5W, with succinate, and with Hiltonol; assay type: physicochemical
[3] = Direct dissolution of peptides in D5W without DMSO; assay type: physicochemical; settings: <1 mg peptide
[4] = Peptide diluent matrix (precipitation of DMSO dissolved peptides in various liquids); assay type: physicochemical; set-up: key to Precipitation in diluent: Liposome / Precipitation in diluent: PBS pH 7.4 / Precipitation in diluent: Water / Precipitation in diluent: 10% Sucrose / Precipitation in diluent: D5W (5% Dextrose USP Grade Inj): P = precipitation; NP = no precipitation
Description: Additional peptide solubility conditions were tested. Peptides CS6709, CS6712, CS6720, CS6726, and CS6783 were weighed at approximately 10 mg each. The peptides were then dissolved in approximately 200 μL USP grade DMSO to obtain a 50 mg/mL concentration for each peptide. […] The sample appeared to be cloudy. Additional 50 μL increments of DMSO were added to Peptide CS6709 up to 400 μL; for a total of 600 μL of DMSO. […] To dilute the peptides to 400 μg, a PBS pH 7.4 solution without potassium was prepared. All 5 DMSO peptide samples (50 mg/mL) were placed in a single vial for dilution to 400 μg/mL. Each DMSO peptide was added to the vial at 40 μL, except for CS6709 which was at a concentration of 16.67 mg/mL. The volume of CS6709 added to the single vial was 120 μL. The samples were diluted to 400 μg by adding 4.72 mL PBS pH 7.4. Upon addition of the PBS pH 7.4, it was observed that one or more of the peptides had precipitated out. To determine which of the peptides precipitated, Applicants followed the matrix in Table 5 below using very small amounts (10-20 μL) of the DMSO dissolved peptides and adding these peptides to the various liquids.

[5] = Short-term room temperature stability of Pool 3 mixed with Hiltonol (RP-HPLC); assay type: physicochemical
Description: A peptide pool (Pool 3) consisting of the five peptides shown in Table 6 below was prepared by dissolution in DMSO and dilution with D5W/Succinate (2 mM) to 2 mg/ml and pooling to a final peptide concentration of 400 μg per ml and a final DMSO concentration of 4%. After preparation, peptides were filtered with a 25 mm Pall PES filter (Cat#4612) and dispensed into Nunc Cryo vials (#375418) in one ml aliquots.
Three samples were prepared by mixing 0.75 ml of Pool3 with 0.25 ml Hiltonol® as planned for the dosage form preparation. The samples were then left at room temperature for 0, 4 and 6 hours and analyzed by RP-HPLC (Table 7). […] As slight increase in a second peak associated with peptide CS6919 was noted, increasing from 14% to 17% and 18% at 4 and 6 hours, respectively. […] Recovery of all peptides was above 90%, indicating no breakdown and loss of any peptides in the final dosage form after 6 hour room temperature incubation.

Substance: H-ETYSRSFYPEHSIKEWLIGMELVFV-OH
solubility [1]: < 2000 µg/mL

Substance: H-SHKLESIKEITNFKDAKQLL-OH
solubility [1]: > 2000 µg/mL

Substance: H-ESKLFGDPDEFSLAHLLEPFRQYYL-OH
solubility [1]: < 2000 µg/mL

Substance: H-PAAGDFIRFRFFQLLRLERFF-OH
solubility [1]: < 2000 µg/mL

Substance: H-PIDTSKTDPTVLLFMESQYSQLGQD-OH
solubility [1]: > 2000 µg/mL

Substance: H-PETGEIQVKTFLDREQRESYELKV-OH
solubility [1]: > 2000 µg/mL

Second part, the substance after the results:

pH of peptides in DMSO/D5W [2]: 3.96
Dissolution directly in D5W without using DMSO [3]: could not be dissolved
Precipitation in diluent: 10% Sucrose ([4]; 10-20 μL DMSO dissolved peptide added to 10% Sucrose): NP
Precipitation in diluent: D5W (5% Dextrose USP Grade Inj) ([4]; 10-20 μL DMSO dissolved peptide added to D5W): NP
Precipitation in diluent: Liposome ([4]; 10-20 μL DMSO dissolved peptide added to Liposome): P
Precipitation in diluent: PBS pH 7.4 ([4]; 10-20 μL DMSO dissolved peptide added to PBS pH 7.4): P
Precipitation in diluent: Water ([4]; 10-20 μL DMSO dissolved peptide added to Water): NP
Precipitation when PBS pH 7.4 added as diluent to the peptide mixture ([4]; dilution to 400 μg/mL): precipitate
Substance: H-LLTDRNTSGTTFTLLGVSDYPELQVPLFLVFLA-OH [CS6783]

pH of peptides in DMSO/D5W [2]: 3.78
pH of peptides in DMSO/D5W/5mM S. Succinate spike [2]: 6.44
pH of peptides in DMSO/D5W/5nnM Succinate and Hiltonol [2]: 6.65
Substance: H-SYDSVIRELLQKPNVRVVVL-OH [CS7425]

pH of peptides in DMSO/D5W [2]: 3.87
pH of peptides in DMSO/D5W/5mM S. Succinate spike [2]: 6.53
pH of peptides in DMSO/D5W/5nnM Succinate and Hiltonol [2]: 6.94
Substance: H-DSAVDKGHPNRSALSLTPGLRIGPSGLFLVFLA-OH [CS7411]

pH of peptides in DMSO/D5W [2]: 3.98
pH of peptides in DMSO/D5W/5mM S. Succinate spike [2]: 6.76
pH of peptides in DMSO/D5W/5nnM Succinate and Hiltonol [2]: 6.96
Substance: H-YLLPKTAVVLRCPALRVRKP-OH [CS7418]

pH of peptides in DMSO/D5W [2]: 3.72
pH of peptides in DMSO/D5W/5mM S. Succinate spike [2]: 6.34
pH of peptides in DMSO/D5W/5nnM Succinate and Hiltonol [2]: 6.52
Substance: H-VEQGHVRVGPDVVTHPAFLV-OH [CS7427]

pH of peptides in DMSO/D5W [2]: 4.65
Substance: H-KPKKVAGAATPKKSIKRTPKKVKKPATAAGTKK-OH [CS6717]

pH of peptides in DMSO/D5W [2]: 3.80
pH of peptides in DMSO/D5W/5mM S. Succinate spike [2]: 6.42
pH of peptides in DMSO/D5W/5nnM Succinate and Hiltonol [2]: 6.66
% Impurity ([5]; Pool 3 + Hiltonol, 4 Hours RT): 3.02%
% Purity ([5]; Pool 3 + Hiltonol, 4 Hours RT): 96.98%
Main Peak ([5]; Pool 3 + Hiltonol, 4 Hours RT): 8523.53
Total Impurities ([5]; Pool 3 + Hiltonol, 4 Hours RT): 265.54
Total Peak ([5]; Pool 3 + Hiltonol, 4 Hours RT): 8789.07
% Impurity ([5]; Pool 3 + Hiltonol, 6 Hours RT): 3.21%
% Purity ([5]; Pool 3 + Hiltonol, 6 Hours RT): 96.79%
Main Peak ([5]; Pool 3 + Hiltonol, 6 Hours RT): 9387.81
Total Impurities ([5]; Pool 3 + Hiltonol, 6 Hours RT): 311.37
Total Peak ([5]; Pool 3 + Hiltonol, 6 Hours RT): 9699.18
% Impurity ([5]; T0 Pool 3 + Hiltonol, RP-HPLC): 2.16%
% Purity ([5]; T0 Pool 3 + Hiltonol, RP-HPLC): 97.84%
Main Peak ([5]; T0 Pool 3 + Hiltonol, RP-HPLC): 9014.82
Total Impurities ([5]; T0 Pool 3 + Hiltonol, RP-HPLC): 198.6
Total Peak ([5]; T0 Pool 3 + Hiltonol, RP-HPLC): 9213.42
Substance: H-VAGLAASGLHGSAWLVPGEQPVSGPHHGKQ-OH [CS6931]

pH of peptides in DMSO/D5W [2]: 3.91
pH of peptides in DMSO/D5W/5mM S. Succinate spike [2]: 6.31
pH of peptides in DMSO/D5W/5nnM Succinate and Hiltonol [2]: 6.54
% Impurity ([5]; Pool 3 + Hiltonol, 4 Hours RT): 2.56%
% Purity ([5]; Pool 3 + Hiltonol, 4 Hours RT): 97.44%
Main Peak ([5]; Pool 3 + Hiltonol, 4 Hours RT): 5669.85
Total Impurities ([5]; Pool 3 + Hiltonol, 4 Hours RT): 148.82
Total Peak ([5]; Pool 3 + Hiltonol, 4 Hours RT): 5818.67
% Impurity ([5]; Pool 3 + Hiltonol, 6 Hours RT): 2.1%
% Purity ([5]; Pool 3 + Hiltonol, 6 Hours RT): 97.9%
Main Peak ([5]; Pool 3 + Hiltonol, 6 Hours RT): 6197.48
Total Impurities ([5]; Pool 3 + Hiltonol, 6 Hours RT): 132.83
Total Peak ([5]; Pool 3 + Hiltonol, 6 Hours RT): 6330.31
% Impurity ([5]; T0 Pool 3 + Hiltonol, RP-HPLC): 2.35%
% Purity ([5]; T0 Pool 3 + Hiltonol, RP-HPLC): 97.65%
Main Peak ([5]; T0 Pool 3 + Hiltonol, RP-HPLC): 5988.42
Total Impurities ([5]; T0 Pool 3 + Hiltonol, RP-HPLC): 143.98
Total Peak ([5]; T0 Pool 3 + Hiltonol, RP-HPLC): 6132.4
Substance: H-AESAQRQGPNGGGEQSANEF-OH [CS7416]

pH of peptides in DMSO/D5W [2]: 3.91
pH of peptides in DMSO/D5W/5mM S. Succinate spike [2]: 6.61
pH of peptides in DMSO/D5W/5nnM Succinate and Hiltonol [2]: 6.81
Substance: H-GTKALQLHSIAGRWPRMEPWVVESMSLGVP-OH [CS7415]

pH of peptides in DMSO/D5W [2]: 4.20
Substance: H-LPVFIGNIAVNHAPVSLRPGLGLPPGAPPLVVP-OH [CS6730]

pH of peptides in DMSO/D5W [2]: 4.38
pH of peptides in DMSO/D5W/5mM S. Succinate spike [2]: 6.74
pH of peptides in DMSO/D5W/5nnM Succinate and Hiltonol [2]: 6.99
% Impurity ([5]; Pool 3 + Hiltonol, 4 Hours RT): 17% and 17.09%
% Purity ([5]; Pool 3 + Hiltonol, 4 Hours RT): 82.91%
Main Peak ([5]; Pool 3 + Hiltonol, 4 Hours RT): 7238.56
Total Impurities ([5]; Pool 3 + Hiltonol, 4 Hours RT): 1492.4
Total Peak ([5]; Pool 3 + Hiltonol, 4 Hours RT): 8730.96
% Impurity ([5]; Pool 3 + Hiltonol, 6 Hours RT): 18% and 18.14%
% Purity ([5]; Pool 3 + Hiltonol, 6 Hours RT): 81.86%
Main Peak ([5]; Pool 3 + Hiltonol, 6 Hours RT): 7688.89
Total Impurities ([5]; Pool 3 + Hiltonol, 6 Hours RT): 1703.9
Total Peak ([5]; Pool 3 + Hiltonol, 6 Hours RT): 9392.79
% Impurity ([5]; T0 Pool 3 + Hiltonol, RP-HPLC): 14% and 13.9%
% Purity ([5]; T0 Pool 3 + Hiltonol, RP-HPLC): 86.1%
Main Peak ([5]; T0 Pool 3 + Hiltonol, RP-HPLC): 7786.28
Total Impurities ([5]; T0 Pool 3 + Hiltonol, RP-HPLC): 1256.72
Total Peak ([5]; T0 Pool 3 + Hiltonol, RP-HPLC): 9043
Substance: H-KLAWRGRISSSGCPSMTSPPSPMFGMTLHT-OH [CS6919]
